US11096909B2, “Compounds for use in the treatment of cancer” (University of Oulu, priority 2016, dated 2021)

Key:
[1] = system: HeLa cells treated with hydroxyurea; assay: DNA damage experiments with hydroxyurea; format: cell-based; details: 5 μM OUL35 combined with hydroxyurea, cell confluence at 72 hours
Protocol: FIG. 4. […] Cell confluence is indicated at 72 hours (n=5, data present mean±SEM, n.s=not significant, *P<0.05, **P<0.01).
HeLa cells (ATCC) were grown in Dulbecco's modified Eagle's medium (DMEM, Sigma) supplemented with 10% fetal bovine serum (Lonza), 1× penicillin and streptomycin (Sigma) at 37° C. in a 5% CO2 atmosphere. 4000 cells/well were plated on 96-well plates. […] The DMSO content was kept below 0.05% in all experiments. The 96-well plates were placed in an IncuCyte ZOOM live cell imaging system (Essen BioScience) to follow the cell growth. The plates were scanned in the IncuCyte at 2 hour intervals for 72 hours. Data were analyzed by the IncuCyte Zoom software (Essen BioScience). The results are representative of three (cell growth curves) or five independent experiments (72 h end points) each done in six replicates. P values less than 0.05 were considered as significant (n.s=not statistically significant, *P<0.05, **P<0.01).

ARTD4/PARP4 [2] = biological target: T1, ARTD4/PARP4 (Homo sapiens, UniProt Q9UKK3); assay: Activity-based fluorescent assay, ARTD4; format: biochemical; design: made in house; host or cells: E. coli
ARTD15/PARP16 = biological target: T2, ARTD15/PARP16 (Homo sapiens, UniProt Q8N5Y8); assay: Differential scanning fluorimetry, ARTD15
T2 sequence (Q8N5Y8 94-279 limits assumed): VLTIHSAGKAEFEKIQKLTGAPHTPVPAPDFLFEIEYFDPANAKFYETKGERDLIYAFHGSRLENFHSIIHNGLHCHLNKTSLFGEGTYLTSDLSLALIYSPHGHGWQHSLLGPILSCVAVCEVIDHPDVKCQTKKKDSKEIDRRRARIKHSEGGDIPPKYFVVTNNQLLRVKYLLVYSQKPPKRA

HeLa cells = assay: Cytotoxicity in HeLa cells; format: cell-based; details: 10 μM
ARTD4/PARP4 [3] = biological target: T1, ARTD4/PARP4; assay: Differential scanning fluorimetry, ARTD4; details: read-out: ΔTm (DSF), ° C. ± STDEV
[4] = system: HeLa cells overexpressing ARTD10; assay: Colony formation assay; format: cell-based; details: control cells (ARTD10 not induced), 10 μM compound
Protocol: The different compounds were added as indicated with a final concentration of 10 μM. These were replenished every 48 h. (b) Quantification of the colony formation results. The data represent mean values of three independent experiments performed in duplicates with standard deviations.
The cells were grown in DMEM culture media with 10% FCS, and the plates were incubated at 37° C. with 5% CO2. After 24 h of seeding, over expression of ARTD10 was induced by adding 500 ng/ml doxycycline and the media were also supplemented with the tested compounds at 10 μM concentrations. The cells were allowed to proliferate for the next 10 days, after which they were stained with methylene blue to count the number of surviving colonies. The compounds and doxycycline were replenished every 48 h while fresh media (DMEM supplemented with 10% FCS) was added every four days.

ARTD6/PARP5b = biological target: T3, ARTD6/PARP5b (Homo sapiens, UniProt Q9H2K2); assay: Activity-based fluorescent assay, ARTD6; format: biochemical
T3 construct: made in house; host or cells: E. coli
T3 sequence (Q9H2K2 1-1166): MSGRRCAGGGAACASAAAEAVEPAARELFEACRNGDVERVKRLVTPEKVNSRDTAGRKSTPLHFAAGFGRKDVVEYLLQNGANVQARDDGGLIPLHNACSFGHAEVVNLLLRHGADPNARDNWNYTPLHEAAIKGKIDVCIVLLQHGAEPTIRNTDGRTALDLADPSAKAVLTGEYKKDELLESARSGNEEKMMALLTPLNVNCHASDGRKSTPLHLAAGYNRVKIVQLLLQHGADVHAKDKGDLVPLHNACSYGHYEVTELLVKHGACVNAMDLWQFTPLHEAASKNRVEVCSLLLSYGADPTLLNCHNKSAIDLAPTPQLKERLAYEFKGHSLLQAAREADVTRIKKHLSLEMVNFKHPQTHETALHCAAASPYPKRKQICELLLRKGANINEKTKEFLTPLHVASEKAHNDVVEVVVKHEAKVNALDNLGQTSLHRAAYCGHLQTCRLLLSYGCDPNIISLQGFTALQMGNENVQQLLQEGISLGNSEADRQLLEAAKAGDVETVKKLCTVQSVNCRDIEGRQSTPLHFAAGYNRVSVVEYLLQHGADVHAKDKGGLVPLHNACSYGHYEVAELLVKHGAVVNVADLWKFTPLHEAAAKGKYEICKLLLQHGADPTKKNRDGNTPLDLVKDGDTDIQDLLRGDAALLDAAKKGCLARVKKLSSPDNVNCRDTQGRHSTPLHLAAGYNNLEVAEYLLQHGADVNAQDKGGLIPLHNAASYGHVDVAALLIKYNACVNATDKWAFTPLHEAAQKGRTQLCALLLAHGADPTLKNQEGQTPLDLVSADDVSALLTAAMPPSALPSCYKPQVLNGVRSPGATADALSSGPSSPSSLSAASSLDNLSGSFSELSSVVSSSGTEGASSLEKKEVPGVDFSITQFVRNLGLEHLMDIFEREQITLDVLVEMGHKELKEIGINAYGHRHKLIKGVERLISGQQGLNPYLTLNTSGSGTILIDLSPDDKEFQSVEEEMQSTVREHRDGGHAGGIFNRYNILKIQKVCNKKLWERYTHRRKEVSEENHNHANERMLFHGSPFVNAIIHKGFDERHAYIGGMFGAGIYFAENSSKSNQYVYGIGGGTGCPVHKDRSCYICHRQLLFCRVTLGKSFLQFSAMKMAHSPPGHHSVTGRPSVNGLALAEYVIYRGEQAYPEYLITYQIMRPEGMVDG

ARTD3/PARP3 [5] = biological target: T4, ARTD3/PARP3 (Homo sapiens, UniProt Q9Y6F1); assay: Activity-based fluorescent assay, ARTD3; format: biochemical
T4 construct: made in house; host or cells: E. coli
T4 sequence (Q9Y6F1 1-533): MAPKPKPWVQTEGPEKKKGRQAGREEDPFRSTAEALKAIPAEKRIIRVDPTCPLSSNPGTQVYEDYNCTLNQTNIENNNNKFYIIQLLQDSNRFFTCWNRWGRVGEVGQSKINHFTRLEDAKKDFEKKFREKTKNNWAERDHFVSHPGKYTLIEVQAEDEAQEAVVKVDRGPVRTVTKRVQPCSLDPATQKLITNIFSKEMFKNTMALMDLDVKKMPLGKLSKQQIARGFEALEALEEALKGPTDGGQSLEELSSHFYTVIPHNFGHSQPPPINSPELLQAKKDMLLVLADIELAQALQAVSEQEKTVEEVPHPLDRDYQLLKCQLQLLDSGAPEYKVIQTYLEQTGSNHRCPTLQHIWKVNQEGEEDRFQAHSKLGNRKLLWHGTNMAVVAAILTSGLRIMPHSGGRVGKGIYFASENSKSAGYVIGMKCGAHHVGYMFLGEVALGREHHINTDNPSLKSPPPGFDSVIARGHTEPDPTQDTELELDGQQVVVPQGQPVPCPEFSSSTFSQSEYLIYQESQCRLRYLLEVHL

ARTD7/PARP15 = biological target: T5, ARTD7/PARP15 (Homo sapiens, UniProt Q460N3); assay: biochemical
T5 sequence (Q460N3 1-678): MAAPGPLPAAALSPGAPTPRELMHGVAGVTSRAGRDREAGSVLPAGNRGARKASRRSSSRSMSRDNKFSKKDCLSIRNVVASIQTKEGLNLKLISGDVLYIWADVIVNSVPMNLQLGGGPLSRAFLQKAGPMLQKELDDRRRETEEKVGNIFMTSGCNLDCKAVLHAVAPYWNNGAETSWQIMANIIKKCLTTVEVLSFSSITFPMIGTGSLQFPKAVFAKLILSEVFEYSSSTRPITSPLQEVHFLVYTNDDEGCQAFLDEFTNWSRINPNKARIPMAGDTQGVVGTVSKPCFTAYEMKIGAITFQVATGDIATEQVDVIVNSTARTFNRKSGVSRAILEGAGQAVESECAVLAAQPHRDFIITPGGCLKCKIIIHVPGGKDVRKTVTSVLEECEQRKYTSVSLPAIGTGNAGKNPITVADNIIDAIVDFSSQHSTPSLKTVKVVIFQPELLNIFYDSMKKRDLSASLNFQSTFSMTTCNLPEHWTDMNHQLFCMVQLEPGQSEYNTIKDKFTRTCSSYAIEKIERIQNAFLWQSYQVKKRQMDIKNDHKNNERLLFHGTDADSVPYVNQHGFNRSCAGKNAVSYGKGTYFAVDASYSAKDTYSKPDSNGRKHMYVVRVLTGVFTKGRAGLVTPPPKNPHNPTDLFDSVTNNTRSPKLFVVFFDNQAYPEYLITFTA

ARTD5/PARP5a = biological target: T6, ARTD5/PARP5a (Homo sapiens, UniProt O95271); assay: Activity-based fluorescent assay, ARTD5; format: biochemical
T6 construct: made in house; host or cells: E. coli
T6 sequence (O95271 1-1327): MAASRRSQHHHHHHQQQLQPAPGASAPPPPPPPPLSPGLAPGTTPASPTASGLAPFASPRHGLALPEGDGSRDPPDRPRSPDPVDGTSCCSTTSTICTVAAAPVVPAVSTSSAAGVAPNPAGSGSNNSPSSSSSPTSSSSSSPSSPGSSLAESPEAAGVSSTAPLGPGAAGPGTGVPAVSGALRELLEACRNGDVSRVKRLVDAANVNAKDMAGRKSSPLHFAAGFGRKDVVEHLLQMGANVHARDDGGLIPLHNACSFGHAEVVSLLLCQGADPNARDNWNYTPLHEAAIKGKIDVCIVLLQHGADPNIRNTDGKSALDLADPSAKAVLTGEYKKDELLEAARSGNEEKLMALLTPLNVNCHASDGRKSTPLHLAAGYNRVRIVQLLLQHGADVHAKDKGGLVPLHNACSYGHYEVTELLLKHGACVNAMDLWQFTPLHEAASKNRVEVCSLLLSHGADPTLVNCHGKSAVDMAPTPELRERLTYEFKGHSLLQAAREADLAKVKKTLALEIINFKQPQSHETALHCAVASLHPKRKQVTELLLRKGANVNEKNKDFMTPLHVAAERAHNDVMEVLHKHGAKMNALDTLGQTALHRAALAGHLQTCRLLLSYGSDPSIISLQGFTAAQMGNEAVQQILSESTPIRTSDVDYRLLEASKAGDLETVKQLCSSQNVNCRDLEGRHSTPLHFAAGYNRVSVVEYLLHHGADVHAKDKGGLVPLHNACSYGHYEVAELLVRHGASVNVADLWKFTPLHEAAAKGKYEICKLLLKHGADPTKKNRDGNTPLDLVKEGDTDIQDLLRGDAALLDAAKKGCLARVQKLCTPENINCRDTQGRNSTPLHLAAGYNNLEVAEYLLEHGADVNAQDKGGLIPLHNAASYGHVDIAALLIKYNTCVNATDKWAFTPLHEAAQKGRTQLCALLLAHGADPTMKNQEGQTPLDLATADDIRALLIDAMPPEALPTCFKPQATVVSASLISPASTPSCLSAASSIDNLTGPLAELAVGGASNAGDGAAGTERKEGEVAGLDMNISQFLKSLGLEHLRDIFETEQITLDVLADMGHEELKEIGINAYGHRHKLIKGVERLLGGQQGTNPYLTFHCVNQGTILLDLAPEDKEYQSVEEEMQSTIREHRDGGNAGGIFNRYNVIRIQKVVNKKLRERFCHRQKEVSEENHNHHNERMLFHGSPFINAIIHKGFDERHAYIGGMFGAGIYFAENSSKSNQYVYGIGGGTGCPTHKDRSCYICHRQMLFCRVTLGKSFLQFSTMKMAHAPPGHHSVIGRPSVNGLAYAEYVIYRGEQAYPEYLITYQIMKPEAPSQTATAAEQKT

ARTD3/PARP3 [6] = biological target: T4, ARTD3/PARP3; assay: Differential scanning fluorimetry, ARTD3; format: binding; details: read-out: ΔTm (DSF), ° C. ± STDEV
ARTD12/PARP12 = ARTD12/PARP12 (Homo sapiens, UniProt Q9H0J9); assay: biochemical
ARTD12/PARP12, sequence (Q9H0J9 whole entry): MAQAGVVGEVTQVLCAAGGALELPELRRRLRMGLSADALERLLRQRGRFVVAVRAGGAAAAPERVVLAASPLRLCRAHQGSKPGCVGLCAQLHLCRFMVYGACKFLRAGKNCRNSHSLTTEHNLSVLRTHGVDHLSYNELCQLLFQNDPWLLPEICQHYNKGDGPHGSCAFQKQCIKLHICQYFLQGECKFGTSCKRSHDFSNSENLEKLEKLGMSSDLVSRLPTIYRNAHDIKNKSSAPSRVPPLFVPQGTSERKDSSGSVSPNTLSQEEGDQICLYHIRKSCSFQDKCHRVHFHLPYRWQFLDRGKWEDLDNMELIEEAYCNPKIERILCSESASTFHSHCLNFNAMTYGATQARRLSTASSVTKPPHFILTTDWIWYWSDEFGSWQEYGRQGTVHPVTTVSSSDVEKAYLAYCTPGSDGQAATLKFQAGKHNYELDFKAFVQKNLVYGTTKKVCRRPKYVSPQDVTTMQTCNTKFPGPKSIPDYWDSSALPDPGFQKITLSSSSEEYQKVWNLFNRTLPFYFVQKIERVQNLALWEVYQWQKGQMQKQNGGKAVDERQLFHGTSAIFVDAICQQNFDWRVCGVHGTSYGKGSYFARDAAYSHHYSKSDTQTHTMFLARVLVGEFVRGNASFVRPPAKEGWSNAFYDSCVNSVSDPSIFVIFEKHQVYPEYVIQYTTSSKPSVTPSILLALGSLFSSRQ

T1 sequence (Q9UKK3 whole entry): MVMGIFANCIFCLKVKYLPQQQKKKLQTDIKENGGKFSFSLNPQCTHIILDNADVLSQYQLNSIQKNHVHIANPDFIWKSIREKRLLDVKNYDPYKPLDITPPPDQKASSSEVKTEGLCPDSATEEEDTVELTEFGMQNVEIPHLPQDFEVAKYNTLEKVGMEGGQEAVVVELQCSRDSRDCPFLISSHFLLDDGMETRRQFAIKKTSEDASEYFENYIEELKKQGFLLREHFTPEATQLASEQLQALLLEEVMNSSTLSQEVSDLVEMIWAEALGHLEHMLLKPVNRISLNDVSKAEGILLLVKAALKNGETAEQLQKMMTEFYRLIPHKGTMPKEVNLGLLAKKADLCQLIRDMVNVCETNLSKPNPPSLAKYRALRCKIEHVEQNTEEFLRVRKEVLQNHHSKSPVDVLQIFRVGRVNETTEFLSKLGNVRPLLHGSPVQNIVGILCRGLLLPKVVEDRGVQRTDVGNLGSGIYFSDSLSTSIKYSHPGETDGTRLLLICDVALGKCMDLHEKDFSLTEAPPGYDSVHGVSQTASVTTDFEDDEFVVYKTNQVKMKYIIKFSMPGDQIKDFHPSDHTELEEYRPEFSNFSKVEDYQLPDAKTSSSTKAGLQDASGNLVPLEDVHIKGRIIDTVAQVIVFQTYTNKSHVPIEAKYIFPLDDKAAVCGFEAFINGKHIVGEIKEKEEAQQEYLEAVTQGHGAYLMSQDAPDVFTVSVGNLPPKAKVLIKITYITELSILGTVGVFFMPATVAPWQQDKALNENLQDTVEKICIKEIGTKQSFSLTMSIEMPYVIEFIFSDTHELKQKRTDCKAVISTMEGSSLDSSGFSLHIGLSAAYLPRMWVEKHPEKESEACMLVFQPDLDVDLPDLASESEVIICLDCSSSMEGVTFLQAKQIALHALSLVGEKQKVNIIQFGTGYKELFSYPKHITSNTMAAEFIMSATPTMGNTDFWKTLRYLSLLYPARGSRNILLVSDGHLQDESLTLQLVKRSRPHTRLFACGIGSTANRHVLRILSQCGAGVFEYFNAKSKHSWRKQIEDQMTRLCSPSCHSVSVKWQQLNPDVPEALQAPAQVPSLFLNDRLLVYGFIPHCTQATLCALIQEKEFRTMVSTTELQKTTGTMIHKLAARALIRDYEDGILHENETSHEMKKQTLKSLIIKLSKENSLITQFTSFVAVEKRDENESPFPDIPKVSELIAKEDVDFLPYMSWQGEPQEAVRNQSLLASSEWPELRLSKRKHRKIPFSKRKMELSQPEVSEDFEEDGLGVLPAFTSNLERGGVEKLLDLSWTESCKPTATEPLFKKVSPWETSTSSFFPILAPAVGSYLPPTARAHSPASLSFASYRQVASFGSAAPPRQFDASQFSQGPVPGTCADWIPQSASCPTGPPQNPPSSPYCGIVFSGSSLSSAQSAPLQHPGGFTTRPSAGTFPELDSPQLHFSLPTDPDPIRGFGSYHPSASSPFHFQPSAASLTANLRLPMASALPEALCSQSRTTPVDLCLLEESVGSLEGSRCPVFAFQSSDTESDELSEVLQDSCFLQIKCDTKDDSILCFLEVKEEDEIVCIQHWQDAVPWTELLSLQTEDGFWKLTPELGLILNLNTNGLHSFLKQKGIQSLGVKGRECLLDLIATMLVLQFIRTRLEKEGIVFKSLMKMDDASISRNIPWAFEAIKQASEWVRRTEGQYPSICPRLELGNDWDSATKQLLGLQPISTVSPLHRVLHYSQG

In the case of `NC(=O)c1ccc(Oc2ccc(C(N)=O)cc2)cc1` [OUL35, 4,4′-oxydibenzamide], the “sensitivity to hydroxyurea-induced DNA damage” value [1] is reported as “more sensitive to DNA damage in the presence of OUL35”, the IC50 (ARTD4/PARP4 [2]) is reported as 22.6 µM and the “pIC50 ± SEM” value (ARTD4/PARP4 [2]) is reported as 4.65 ± 0.17. For the same molecule, the “stabilization of catalytic domain (DSF)” value (ARTD15/PARP16; 100 μM OUL35) was “stabilized the catalytic domains”, the ΔTm at 100 µM (ARTD15/PARP16; read-out: ΔTm (DSF), ° C. ± STDEV) was 2.45 ± 0.11 °C and the cytotoxic effect (HeLa cells) was “no cytotoxic effect”. The ΔTm at 100 µM (ARTD4/PARP4 [3]) was 0.84 ± 0.14 °C, the “toxicity in the control cells” value [4] was “not toxic to control cells” and the IC50 (ARTD6/PARP5b) was > 100 µM. For the same molecule, the IC50 (ARTD3/PARP3 [5]) was > 100 µM, the IC50 (ARTD7/PARP15) was > 20 µM and the IC50 (ARTD5/PARP5a) was > 100 µM. The ΔTm at 100 µM (ARTD3/PARP3 [6]) was 0.09 ± 0.32 °C and the IC50 (ARTD12/PARP12) was > 100 µM.
